Measurements reported in US12559529B2, “NPY2 receptor agonists” (Boehringer Ingelheim International GmbH, priority 2019, dated 2026).
*1 amine or outer side, *2 acyl side, *3 side chain or, on linkers, in order; H or OH if unused. Where a SMILES comes first, the peptide text is derived from it. Side-chain parts run from the residue outwards. The star is where a group is joined. C18 diacid = O=C(O)CCCCCCCCCCCCCCCCC(=O)*; γGlu = O=C(O)[C@H](CCC(=O)[*:2])N[*:1]; Isovaleryl = CC(C)CC(=O)*; AEEA = NCCOCCOCC(=O)O

What was measured:
[1] = target: T1, Human Neuropeptide Y2 Receptor (Homo sapiens, UniProt P49146); assay: Radioligand binding competition assay (RLB); details: Table 3; human 125I-PYY (1-36) 0.02 nM, Y2 receptor membranes; read-out: Ki
T1 construct: purchased CHEMICON HTS066M
T1 sequence (P49146 1-381): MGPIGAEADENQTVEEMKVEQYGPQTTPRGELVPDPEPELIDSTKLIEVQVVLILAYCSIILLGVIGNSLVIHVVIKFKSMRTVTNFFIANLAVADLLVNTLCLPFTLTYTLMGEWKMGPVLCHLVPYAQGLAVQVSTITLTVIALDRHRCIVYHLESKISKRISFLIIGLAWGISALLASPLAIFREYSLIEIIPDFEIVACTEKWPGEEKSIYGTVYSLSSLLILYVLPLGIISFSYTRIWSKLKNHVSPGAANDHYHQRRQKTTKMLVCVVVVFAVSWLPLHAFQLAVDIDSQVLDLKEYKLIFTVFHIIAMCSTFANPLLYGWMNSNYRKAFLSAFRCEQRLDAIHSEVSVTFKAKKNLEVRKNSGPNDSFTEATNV
Method in brief: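 Competition binding at commercial human NPY Y2 membrane preparations, 0.5 μg protein per well, 2 h incubation at room temperature. Bound and free ligand were separated on GF/C filters and counted; IC50 was fitted by nonlinear regression.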

normal NMRI mice = assay: Effect on acute food intake in normal NMRI mice; type: in vivo; details: male NMRI mice, 10 nmol/kg subcutaneously once
Description: Male NMRI mice were obtained from Charles River (Charles River, Research Models & Services Germany GmbH) or from Jan Vier (Jan Vier Labs, France) at 5 weeks of age. […] Room temperature was controlled to 21° C.±1° C., with 60%+20% humidity.
Animals were transferred 5-7 days before the start of the study to a real-time food intake monitoring system, HM-2 system (MBRose, Denmark), to allow acclimatization to experimental conditions. As the animals were uniquely identified with microchips, each individual animal was identified by its microchip upon entry and exit from the food channel. Randomization of the mice for each study group (n=7-8) was based on body weight measured the day before the start of the study. A vehicle-treated (50 mM phosphate buffer pH7 with 5% Mannitol) group was included in each experiment. Six hours before the start of the night phase animals were fasted. One hour before the dark phase animals were dosed once subcutaneously (10 nmol/kg) with test peptide. […] The food intake of the treated groups was normalized (in %) to the average food intake of the group receiving vehicle (Table 7). Statistical significance was evaluated using One-way analysis of variance with Turkey's multiple comparison test. P<0.05 was considered statistically significant.

Compound | Ki [1] | Acute Food Intake 24 h [% vehicle] (normal NMRI mice)
CC(C)CC(=O)N[C@@H](C)C(=O)N1CCC[C@H]1C(=O)N[C@@H](CCC(=O)O)C(=O)N[C@@H](CCCCNC(=O)COCCOCCNC(=O)COCCOCCNC(=O)CC[C@H](NC(=O)CCCCCCCCCCCCCCCCC(=O)O)C(=O)O)C(=O)N1CCC[C@H]1C(=O)N[C@@H](CCC(=O)O)C(=O)N[C@@H](CCC(=O)O)C(=O)N[C@@H](CCC(=O)O)C(=O)N[C@@H](C)C(=O)N[C@@H](CO)C(=O)N1CCC[C@H]1C(=O)N[C@@H](C)C(=O)N[C@@H](CCC(=O)O)C(=O)N[C@@H](CC(C)C)C(=O)N[C@@H](CCC(N)=O)C(=O)N[C@@H](CCCNC(=N)N)C(=O)N[C@@H](Cc1ccc(O)cc1)C(=O)N[C@@H](Cc1ccc(O)cc1)C(=O)N[C@H](C(=O)N[C@@H](CO)C(=O)N[C@@H](CC(C)C)C(=O)N[C@@H](CCCNC(=N)N)C(=O)N[C@@H](Cc1c[nH]cn1)C(=O)N[C@@H](Cc1ccc(O)cc1)C(=O)N[C@@H](Cc1ccc(O)cc1)C(=O)N[C@@H](CC(N)=O)C(=O)N[C@@H](Cc1c[nH]c2ccccc12)C(=O)N[C@@H](CC(C)C)C(=O)N[C@H](C(=O)N[C@@H](CCCNC(=N)N)C(=O)N[C@@H](CCC(N)=O)C(=O)N[C@@H](CCCNC(=N)N)C(=O)N[C@@H](Cc1ccc(O)cc1)C(N)=O)[C@@H](C)O)C(C)C [Compound 3, N{alpha-4}-(3-methylbutanoyl)-N{epsilon-7}-[2-(2-{2-[2-(2-{2-[(4S)-4-carboxy-4-(17-carboxyheptadecanamido)butanamido]ethoxy}ethoxy)acetamido]ethoxy}ethoxy)acetamido]-[4A,7K,9E,11E,15A,18Q,22V,28Y,30W,31L]hPYY (4-36)] (Isovaleryl-APEK([AEEA-AEEA-γGlu-C18 diacid])PEEEASPAELQRYYVSLRHYYNWLTRQRY-NH2) | 3.14 nM | 62 % vehicle
CC(C)CC(=O)N[C@@H](C)C(=O)N1CCC[C@H]1C(=O)N[C@@H](CCC(=O)O)C(=O)N[C@@H](CCCCNC(=O)COCCOCCNC(=O)COCCOCCNC(=O)CC[C@H](NC(=O)CCCCCCCCCCCCCCCCC(=O)O)C(=O)O)C(=O)N1CCC[C@H]1C(=O)N[C@@H](CCC(=O)O)C(=O)N[C@@H](CCC(=O)O)C(=O)N[C@@H](CC(=O)O)C(=O)N[C@@H](C)C(=O)N[C@@H](CO)C(=O)N1CCC[C@H]1C(=O)N[C@@H](CCC(=O)O)C(=O)N[C@@H](CCC(=O)O)C(=O)N[C@@H](CC(C)C)C(=O)N[C@@H](CCC(N)=O)C(=O)N[C@@H](C)C(=O)N[C@@H](Cc1ccc(O)cc1)C(=O)N[C@@H](Cc1ccc(O)cc1)C(=O)N[C@H](C(=O)N[C@@H](CO)C(=O)N[C@@H](CC(C)C)C(=O)N[C@@H](CCCNC(=N)N)C(=O)N[C@@H](Cc1c[nH]cn1)C(=O)N[C@@H](Cc1ccc(O)cc1)C(=O)N[C@@H](Cc1ccc(O)cc1)C(=O)N[C@@H](CC(N)=O)C(=O)N[C@@H](Cc1c[nH]c2ccccc12)C(=O)N[C@@H](CC(C)C)C(=O)N[C@H](C(=O)N[C@@H](CCCNC(=N)N)C(=O)N[C@@H](CCC(N)=O)C(=O)N[C@@H](CCCNC(=N)N)C(=O)N[C@@H](Cc1ccc(O)cc1)C(N)=O)[C@@H](C)O)C(C)C [Compound 7, N{alpha-4}-(3-methylbutanoyl)-N{epsilon-7}-[2-(2-{2-[2-(2-{2-[(4S)-4-carboxy-4-(17-carboxyheptadecanamido)butanamido]ethoxy}ethoxy)acetamido]ethoxy}ethoxy)acetamido]-[4A,7K,9E,18Q,19A,22V,28Y,30W,31L]hPYY (4-36)] | 1.02 nM | 47 % vehicle
CC[C@H](C)[C@H](NC(=O)[C@H](CCC(=O)O)NC(=O)[C@H](CCC(=O)O)NC(=O)[C@@H]1CCCN1C(=O)[C@H](CO)NC(=O)[C@H](C)NC(=O)[C@H](CC(=O)O)NC(=O)[C@H](CCC(=O)O)NC(=O)[C@H](CCC(=O)O)NC(=O)[C@@H]1CCCN1C(=O)[C@H](CCCCNC(=O)COCCOCCNC(=O)COCCOCCNC(=O)CC[C@H](NC(=O)CCCCCCCCCCCCCCCCC(=O)O)C(=O)O)NC(=O)[C@H](CCC(=O)O)NC(=O)[C@@H]1CCCN1C(=O)[C@H](C)NC(=O)CC(C)C)C(=O)N[C@@H](CCC(N)=O)C(=O)N[C@@H](CCCNC(=N)N)C(=O)N[C@@H](Cc1ccc(O)cc1)C(=O)N[C@@H](Cc1ccc(O)cc1)C(=O)N[C@H](C(=O)N[C@@H](CCC(=O)O)C(=O)N[C@@H](CC(C)C)C(=O)N[C@@H](CCCNC(=N)N)C(=O)N[C@@H](Cc1c[nH]cn1)C(=O)N[C@@H](Cc1ccc(O)cc1)C(=O)N[C@@H](Cc1ccc(O)cc1)C(=O)N[C@@H](CC(N)=O)C(=O)N[C@@H](Cc1c[nH]c2ccccc12)C(=O)N[C@@H](CC(C)C)C(=O)N[C@H](C(=O)N[C@@H](CCCNC(=N)N)C(=O)N[C@@H](CCC(N)=O)C(=O)N[C@@H](CCCNC(=N)N)C(=O)N[C@@H](Cc1ccc(O)cc1)C(N)=O)[C@@H](C)O)C(C)C [Compound 9, N{alpha-4}-(3-methylbutanoyl)-N{epsilon-7}-[2-(2-{2-[2-(2-{2-[(4S)-4-carboxy-4-(17-carboxyheptadecanamido)butanamido]ethoxy}ethoxy)acetamido]ethoxy}ethoxy)acetamido]-[4A,7K,9E,17I,18Q,22V,23E,28Y,30W,31L]hPYY (4-36)] | 1.22 nM | 44 % vehicle
CC(C)CC(=O)N[C@@H](C)C(=O)N1CCC[C@H]1C(=O)N[C@@H](CCC(=O)O)C(=O)N[C@@H](CCCCNC(=O)COCCOCCNC(=O)COCCOCCNC(=O)CC[C@H](NC(=O)CCCCCCCCCCCCCCCCC(=O)O)C(=O)O)C(=O)N1CCC[C@H]1C(=O)N[C@@H](CCC(=O)O)C(=O)N[C@@H](CCC(=O)O)C(=O)N[C@@H](CC(=O)O)C(=O)N[C@@H](C)C(=O)N[C@@H](CO)C(=O)N1CCC[C@H]1C(=O)N[C@@H](CCC(=O)O)C(=O)N[C@@H](CCC(=O)O)C(=O)N[C@H](C(=O)N[C@@H](CCC(N)=O)C(=O)N[C@@H](CCCNC(=N)N)C(=O)N[C@@H](Cc1ccc(O)cc1)C(=O)N[C@@H](Cc1ccc(O)cc1)C(=O)N[C@H](C(=O)N[C@H](C(=O)N[C@@H](CC(C)C)C(=O)N[C@@H](CCCNC(=N)N)C(=O)N[C@@H](Cc1c[nH]cn1)C(=O)N[C@@H](Cc1ccc(O)cc1)C(=O)N[C@@H](Cc1ccc(O)cc1)C(=O)N[C@@H](CC(N)=O)C(=O)N[C@@H](Cc1c[nH]c2ccccc12)C(=O)N[C@@H](CC(C)C)C(=O)N[C@H](C(=O)N[C@@H](CCCNC(=N)N)C(=O)N[C@@H](CCC(N)=O)C(=O)N[C@@H](CCCNC(=N)N)C(=O)N[C@@H](Cc1ccc(O)cc1)C(N)=O)[C@@H](C)O)[C@@H](C)O)C(C)C)[C@@H](C)O [Compound 16, N{alpha-4}-(3-methylbutanoyl)-N{epsilon-7}-[2-(2-{2-[2-(2-{2-[(4S)-4-carboxy-4-(17-carboxyheptadecanamido)butanamido]ethoxy}ethoxy)acetamido]ethoxy}ethoxy)acetamido]-[4A,7K,9E,17T,18Q,22V,23T,28Y,30W,31L]hPYY (4-36)] | 3.09 nM | 67 % vehicle
CC(C)CC(=O)N[C@@H](C)C(=O)N1CCC[C@H]1C(=O)N[C@@H](CCC(=O)O)C(=O)N[C@@H](CCCCNC(=O)COCCOCCNC(=O)COCCOCCNC(=O)CC[C@H](NC(=O)CCCCCCCCCCCCCCCCC(=O)O)C(=O)O)C(=O)N1CCC[C@H]1C(=O)N[C@@H](CCC(=O)O)C(=O)N[C@@H](CCC(=O)O)C(=O)N[C@@H](CC(=O)O)C(=O)N[C@@H](C)C(=O)N[C@@H](CO)C(=O)N1CCC[C@H]1C(=O)N[C@@H](CCC(=O)O)C(=O)N[C@@H](CCC(=O)O)C(=O)N[C@@H](CC(C)C)C(=O)N[C@@H](CCC(N)=O)C(=O)N[C@@H](CCC(N)=O)C(=O)N[C@@H](Cc1ccc(O)cc1)C(=O)N[C@@H](CCC(=O)O)C(=O)N[C@H](C(=O)N[C@@H](CO)C(=O)N[C@@H](CC(C)C)C(=O)N[C@@H](CCCNC(=N)N)C(=O)N[C@@H](Cc1c[nH]cn1)C(=O)N[C@@H](Cc1ccc(O)cc1)C(=O)N[C@@H](Cc1ccc(O)cc1)C(=O)N[C@@H](CC(N)=O)C(=O)N[C@@H](Cc1c[nH]c2ccccc12)C(=O)N[C@@H](CC(C)C)C(=O)N[C@H](C(=O)N[C@@H](CCCNC(=N)N)C(=O)N[C@@H](CCC(N)=O)C(=O)N[C@@H](CCCNC(=N)N)C(=O)N[C@@H](Cc1ccc(O)cc1)C(N)=O)[C@@H](C)O)C(C)C [Compound 167, N{alpha-4}-(3-methylbutanoyl)-N{epsilon-7}-[2-(2-{2-[2-(2-{2-[(4S)-4-carboxy-4-(17-carboxyheptadecanamido)butanamido]ethoxy}ethoxy)acetamido]ethoxy}ethoxy)acetamido]-[4A,7K,9E,18Q,19Q,21E,22V,28Y,30W,31L]hPYY (4-36)] (Isovaleryl-APEK([AEEA-AEEA-γGlu-C18 diacid])PEEDASPEELQQYEVSLRHYYNWLTRQRY-NH2) |  | 73 % vehicle
